From publication doi:10.1101/2023.09.03.556088, “Protein coopted from a phage restriction system dictates orthogonal cell division plane selection in Staphylococcus aureus” (bioRxiv, 2023)

T1: PcdA (Staphylococcus aureus, UniProt A0A0H2XHA0)
T1 construct: gene SAUSA300_2094; full-length, untagged; His6-SUMO fusion (pTB146, pFRL159) cleaved with Ulp1; expressed in E. coli BL21(DE3)
T1 sequence (A0A0H2XHA0 1-457): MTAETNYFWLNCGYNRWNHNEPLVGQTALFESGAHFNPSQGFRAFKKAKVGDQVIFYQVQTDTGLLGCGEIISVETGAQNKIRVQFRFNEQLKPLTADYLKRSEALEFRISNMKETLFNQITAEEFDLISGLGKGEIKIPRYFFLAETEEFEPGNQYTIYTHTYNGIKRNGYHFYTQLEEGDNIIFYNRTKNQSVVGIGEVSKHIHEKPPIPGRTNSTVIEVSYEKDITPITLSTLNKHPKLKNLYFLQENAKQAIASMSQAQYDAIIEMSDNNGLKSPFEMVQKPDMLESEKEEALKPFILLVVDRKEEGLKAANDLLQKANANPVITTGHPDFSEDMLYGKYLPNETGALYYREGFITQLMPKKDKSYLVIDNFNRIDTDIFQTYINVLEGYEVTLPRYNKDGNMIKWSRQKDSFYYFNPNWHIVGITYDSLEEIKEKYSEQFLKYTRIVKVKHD


Experiments:
PcdA = target: T1, PcdA; assay: inorganic phosphate release (PiColorLock); assay type: biochemical; details: 50 mM Tris-HCl pH 8.0, 150 mM KCl, 5 mM MgCl2, 37 °C, 0.25-4 mM NTP, 2.5 μM protein
[1] = target: the molecule itself; assay: co-sedimentation; with 2 mM GMPCPP; 30 μM FtsZ with or without PcdA (5 μM in the legend, 10 μM in the methods); 20 mM HEPES pH 7.5, 140 mM KCl, 5 mM MgCl2; 10 min at 37 °C, then 30 min at 129,000 × g; supernatant and pellet on SDS-PAGE, Coomassie

Molecule	kcat (PcdA)	binding result [1]
Nc1ncnc2c1ncn2[C@@H]1O[C@H](COP(=O)(O)OP(=O)(O)OP(=O)(O)O)[C@@H](O)[C@H]1O [ATP]	Incubation of increasing concentrations of either ATP or GTP with PcdA produced saturation curves	–
Nc1nc2c(ncn2[C@@H]2O[C@H](COP(=O)(O)OP(=O)(O)OP(=O)(O)O)[C@@H](O)[C@H]2O)c(=O)[nH]1 [GTP]	Incubation of increasing concentrations of either ATP or GTP with PcdA produced saturation curves	–
FtsZ (purified recombinant untagged S. aureus FtsZ) (natural protein, UniProt P0A031 1-390, looked up, FtsZ, tubulin homolog, Staphylococcus aureus; Polymerised with GMPCPP in the co-sedimentation assay, unpolymerised (no GTP) in the filter retention assay) MLEFEQGFNHLATLKVIGVGGGGNNAVNRMIDHGMNNVEFIAINTDGQALNLSKAESKIQIGEKLTRGLGAGANPEIGKKAAEESREQIEDAIQGADMVFVTSGMGGGTGTGAAPVVAKIAKEMGALTVGVVTRPFSFEGRKRQTQAAAGVEAMKAAVDTLIVIPNDRLLDIVDKSTPMMEAFKEADNVLRQGVQGISDLIAVSGEVNLDFADVKTIMSNQGSALMGIGVSSGENRAVEAAKKAISSPLLETSIVGAQGVLMNITGGESLSLFEAQEAADIVQDAADEDVNMIFGTVINPELQDEIVVTVIATGFDDKPTSHGRKSGSTGFGTSVNTSSNATSKDESFTSNSSNAQATDSVSERTHTTKEDDIPSFIRNREERRSRRTRR	–	binds
